In general, EC50 refers to the midpoint of the concentration-response curve. Low values mean higher potency in that assay, high ones lower potency in that assay.

Square brackets hold non-standard residues; d marks the D form. Peptide text beside a SMILES is read from it. * marks the point of attachment. His(Trt) = N[C@@H](Cc1cn(C(c2ccccc2)(c2ccccc2)c2ccccc2)cn1)C(=O)O; His(τ-CHPh2) = N[C@@H](Cc1cn(C(c2ccccc2)c2ccccc2)cn1)C(=O)O; Biotin = O=C1N[C@H]2[C@H](CS[C@H]2CCCCC(=O)*)N1; dPhe(4-Cl) = N[C@H](Cc1ccc(Cl)cc1)C(=O)O; dPhe(4-Me) = Cc1ccc(C[C@@H](N)C(=O)O)cc1; Phe(4-Me) = Cc1ccc(C[C@H](N)C(=O)O)cc1; Myristoyl = CCCCCCCCCCCCCC(=O)*; Octanoyl = CCCCCCCC(=O)*

Data on seven compounds can be found in patent US20230212222A1 (ANYGEN CO., LTD., priority 2020, published 2023).

Data set [1] concerns the target T1, GPR39 (Homo sapiens, UniProt O43194).
T1 sequence (O43194 1-453): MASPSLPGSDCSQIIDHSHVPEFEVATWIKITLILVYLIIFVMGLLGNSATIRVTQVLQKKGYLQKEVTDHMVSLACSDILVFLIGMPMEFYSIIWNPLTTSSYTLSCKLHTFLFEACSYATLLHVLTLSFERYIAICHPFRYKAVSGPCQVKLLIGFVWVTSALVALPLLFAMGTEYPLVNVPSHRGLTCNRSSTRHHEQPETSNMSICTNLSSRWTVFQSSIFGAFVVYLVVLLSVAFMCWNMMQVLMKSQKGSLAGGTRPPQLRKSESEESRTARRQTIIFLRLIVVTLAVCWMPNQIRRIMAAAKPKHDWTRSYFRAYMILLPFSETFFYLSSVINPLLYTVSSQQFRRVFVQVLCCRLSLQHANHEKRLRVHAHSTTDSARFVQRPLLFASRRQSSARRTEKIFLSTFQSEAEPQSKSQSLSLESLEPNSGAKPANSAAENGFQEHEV
Description: (§1) Specifically, the fibroblast cell line CV-1 (1×10^5 cells/ml, Korea Cell Line Bank) was cultured in a 96 well cell culture plate for 24 hours, and then treated with GPR39 inserted into adenovirus and SRE (serum response element) luciferase at 50 MOI (multiplicity of infection) and 25 MOI virus for 3 hours, respectively, and then cultured for 24 hours.

The target in data set [2] is T1, GPR39. The experiment in a line: luciferase assay system (SRE luciferase reporter gene) for GPR39 in CV-1 cells. The conditions noted are these: EC50, CV-1 cells, GPR39 and SRE luciferase adenovirus, treated 6 hours, luminometer. In general terms: A reporter such as luciferase makes a cellular process visible.
Description: as §1

`CCCCCCCC(=O)NCCCC[C@H](NC(=O)[C@H](Cc1cn(C(c2ccccc2)c2ccccc2)cn1)NC(=O)CCCC[C@@H]1SC[C@@H]2NC(=O)N[C@@H]21)C(=O)N[C@@H](Cc1ccc(C)cc1)C(=O)N[C@@H](Cc1ccc(O)cc1)C(=O)O` [HKFY-72, ((S)-2-((S)-2-((S)-3-(1-benzhydryl-1H-imidazol-4-yl)-2-(5-((3aS,4S,6aR)-2-oxohexahydro-1H-thieno[3,4-d]imidazol-4-yl)pentanamido)propanamido)-6-octanamidohexanamido)-3-(p-tolyl)propanoyl)-L-tyrosine] (Biotin-[His(τ-CHPh2)]K(Octanoyl)[Phe(4-Me)]Y-OH): the “ECmax (-fold induction over basal)” value at GPR39 [1] is listed as 10.4 ± 1.12 -fold induction over basal. In addition, a half-maximal response at GPR39 [2] (EC50) required 11 ± 2 nM.

Consider `CCCCCCCC(=O)NCCCC[C@H](NC(=O)[C@@H](N)Cc1cn(C(c2ccccc2)(c2ccccc2)c2ccccc2)cn1)C(=O)N[C@@H](Cc1ccccc1)C(=O)N[C@@H](Cc1c[nH]c2ccccc12)C(=O)O` [HKFY-46, N6-octanoyl-N2-(Nt-trityl-L-histidyl)-L-lysyl-L-phenylalanyl-L-tryptophan] (H-[His(Trt)]K(Octanoyl)FW-OH), for which the “ECmax (-fold induction over basal)” value at GPR39 [1] is given as 20 ± 0.28 -fold induction over basal. Also, a half-maximal effect at GPR39 [2] (EC50) was put at 260 ± 150 nM.

Consider `CCCCCCCC(=O)NCCCC[C@@H](NC(=O)[C@@H](N)Cc1cn(C(c2ccccc2)(c2ccccc2)c2ccccc2)cn1)C(=O)N[C@H](Cc1ccc(Cl)cc1)C(=O)N[C@@H](Cc1ccc(O)cc1)C(=O)O` [HKFY-16, ((R)-2-((R)-2-((S)-2-amino-3-(1-trityl-1H-imidazol-4-yl)propanamido)-6-octanamidohexanamido)-3-(4-chlorophenyl)propanoyl)-L-tyrosine] (H-[His(Trt)][dK](Octanoyl)[dPhe(4-Cl)]Y-OH), for which the “ECmax (-fold induction over basal)” value at GPR39 [1] is given as 27.9 ± 3.4 -fold induction over basal. In addition, the response on GPR39 [2] was half-maximal at 240 ± 20 nM (EC50).

In the case of `CCCCCCCCCCCCCC(=O)NCCCC[C@H](NC(=O)[C@@H](N)Cc1cn(C(c2ccccc2)(c2ccccc2)c2ccccc2)cn1)C(=O)N[C@@H](Cc1ccccc1)C(=O)N[C@@H](Cc1ccc(O)cc1)C(=O)O` [HKFY-26, N6-tetradecanoyl-N2-(Nt-trityl-L-histidyl)-L-lysyl-L-phenylalanyl-L-tyrosine] (H-[His(Trt)]K(Myristoyl)FY-OH), at GPR39 [1], the “ECmax (-fold induction over basal)” value is 19.82 ± 0.57 -fold induction over basal. This compound returned a 50% effective concentration (EC50) on GPR39 [2] of 280 ± 20 nM.

As for `CCCCCCCC(=O)NCCCC[C@H](NC(=O)[C@@H](N)Cc1cn(C(c2ccccc2)c2ccccc2)cn1)C(=O)N[C@H](Cc1ccc(C)cc1)C(=O)N[C@@H](Cc1ccc(O)cc1)C(N)=O` [HKFY-66, N-((S)-5-((S)-2-amino-3-(1-benzhydryl-1H-imidazol-4-yl)propanamido)-6-(((R)-1-(((S)-1-amino-3-(4-hydroxyphenyl)-1-oxopropan-2-yl)amino)-1-oxo-3-(p-tolyl)propan-2-yl)amino)-6-oxohexyl)octanamide] (H-[His(τ-CHPh2)]K(Octanoyl)[dPhe(4-Me)]Y-NH2), the “ECmax (-fold induction over basal)” value at GPR39 [1] is 20.2 ± 3.5 -fold induction over basal. Also, a half-maximal effect on GPR39 [2] (EC50) was put at 11 ± 1 nM.

For the compound `CCCCCCCC(=O)NCCCC[C@H](NC(=O)[C@@H](N)Cc1cn(C(c2ccccc2)(c2ccccc2)c2ccccc2)cn1)C(=O)N[C@@H](Cc1ccccc1)C(=O)N[C@@H](Cc1ccc(O)cc1)C(=O)O` [HKFY-1, N6-octanoyl-N2-(Nt-trityl-L-histidyl)-L-lysyl-L-phenylalanyl-L-tyrosine] (H-[His(Trt)]K(Octanoyl)FY-OH), on GPR39 [1], the “ECmax (-fold induction over basal)” value is given as 20.51 ± 0.57 -fold induction over basal. At GPR39 [2], the EC50 was 150 ± 10 nM.

With `CCCCCCCC(=O)NCCCC[C@H](NC(=O)[C@H](Cc1cn(C(c2ccccc2)(c2ccccc2)c2ccccc2)cn1)NC(=O)CCCC[C@@H]1SC[C@@H]2NC(=O)N[C@@H]21)C(=O)N[C@@H](Cc1ccccc1)C(=O)N[C@@H](Cc1ccc(O)cc1)C(=O)O` [HKFY-2, N6-octanoyl-N2-(Na-(5-((3aS,4S,6aR)-2-oxohexahydro-1H-thieno[3,4-d]imidazol-4-yl)pentanoyl)-Nt-trityl-L-histidyl)-L-lysyl-L-phenylalanyl-L-tyrosine] (Biotin-[His(Trt)]K(Octanoyl)FY-OH), the “ECmax (-fold induction over basal)” value on GPR39 [1] is on record as 15 ± 1.87 -fold induction over basal. On GPR39 [2], this compound showed an EC50 of 140 ± 70 nM.
